Measurements published in patent US12331051B2 (priority 2021, dated 2025).

What was measured:
[1] = target: ADRa1B (α1B adrenergic receptor) (Homo sapiens, UniProt P35368); assay: BRET-based G protein dissociation assay; type: cell-based
[2] = target: ADRa2B (α2B adrenergic receptor) (Homo sapiens, UniProt P18089); assay: BRET-based G protein dissociation assay; type: cell-based
5-HT1E = target: T1, 5-HT1E (Homo sapiens, UniProt P28566); assay: Functional assay (Arrestin); type: cell-based
T1 construct: expressed in transfected cells; host or cells: HEK-293
T1 sequence (P28566 whole entry): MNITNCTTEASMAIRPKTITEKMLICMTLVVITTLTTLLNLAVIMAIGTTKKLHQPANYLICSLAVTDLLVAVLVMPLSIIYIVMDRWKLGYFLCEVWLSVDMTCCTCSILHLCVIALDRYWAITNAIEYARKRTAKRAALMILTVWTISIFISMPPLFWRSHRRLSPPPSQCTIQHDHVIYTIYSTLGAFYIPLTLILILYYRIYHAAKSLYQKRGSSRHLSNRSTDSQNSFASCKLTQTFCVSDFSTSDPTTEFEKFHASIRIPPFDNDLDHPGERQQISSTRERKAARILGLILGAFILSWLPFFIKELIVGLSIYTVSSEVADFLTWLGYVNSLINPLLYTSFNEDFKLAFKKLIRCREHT

hERG channel = target: T2, hERG channel (Homo sapiens, UniProt Q12809); assay: Cell-based hERG antagonist assay, CHO-K1 cells, tail current
T2 construct: expressed in transfected cells; host or cells: CHO-K1
T2 sequence (Q12809 whole entry): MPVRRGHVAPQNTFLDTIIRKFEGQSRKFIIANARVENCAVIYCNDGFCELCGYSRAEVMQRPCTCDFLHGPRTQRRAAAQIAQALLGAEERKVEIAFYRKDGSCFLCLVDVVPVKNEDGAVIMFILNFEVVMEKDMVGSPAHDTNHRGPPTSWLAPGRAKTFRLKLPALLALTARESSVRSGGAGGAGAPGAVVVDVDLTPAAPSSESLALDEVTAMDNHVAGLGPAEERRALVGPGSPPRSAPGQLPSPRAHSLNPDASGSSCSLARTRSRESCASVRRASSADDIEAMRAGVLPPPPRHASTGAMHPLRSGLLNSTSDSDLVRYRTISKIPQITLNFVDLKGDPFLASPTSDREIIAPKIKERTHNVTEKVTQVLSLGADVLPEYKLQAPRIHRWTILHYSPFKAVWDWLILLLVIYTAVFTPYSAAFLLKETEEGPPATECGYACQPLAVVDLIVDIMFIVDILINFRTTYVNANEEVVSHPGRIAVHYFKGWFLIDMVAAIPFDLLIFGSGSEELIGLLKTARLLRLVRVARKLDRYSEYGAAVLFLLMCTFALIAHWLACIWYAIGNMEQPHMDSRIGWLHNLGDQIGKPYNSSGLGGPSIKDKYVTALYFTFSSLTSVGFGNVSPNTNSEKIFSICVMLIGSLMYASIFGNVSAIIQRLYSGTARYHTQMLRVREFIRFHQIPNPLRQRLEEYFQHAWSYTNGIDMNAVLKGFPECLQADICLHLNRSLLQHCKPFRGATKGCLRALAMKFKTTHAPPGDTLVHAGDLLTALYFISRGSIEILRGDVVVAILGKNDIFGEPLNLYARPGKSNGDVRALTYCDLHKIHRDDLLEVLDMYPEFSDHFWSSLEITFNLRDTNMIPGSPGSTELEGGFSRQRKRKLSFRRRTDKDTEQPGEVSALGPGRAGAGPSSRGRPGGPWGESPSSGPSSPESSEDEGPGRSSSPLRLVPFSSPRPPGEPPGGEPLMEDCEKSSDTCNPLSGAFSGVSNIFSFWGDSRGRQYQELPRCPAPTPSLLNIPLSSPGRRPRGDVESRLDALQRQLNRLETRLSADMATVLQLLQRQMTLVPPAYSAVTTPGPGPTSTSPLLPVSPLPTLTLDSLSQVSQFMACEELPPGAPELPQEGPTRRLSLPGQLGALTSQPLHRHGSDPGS
Description: The human […] (hERG) channel, is a potassium channel whose inhibition is related to cardiac arrhythmias (Abbott et al., Cell, 1999, V97(2); p175-187). The effect of the “E559 polymorph” on the hERG channel was performed in a cell-based hERG antagonist assay. In brief, CHO-K1 cells were stably transfected with human hERG cDNA and allowed to achieve whole cell configuration in culture. Cells were held at −80 mV and a 500 ms pulse to −40 mV is delivered to measure the leaking current, which is subtracted from the tail current on-line. Then the cell is depolarized to +40 mV for 500 ms and then to −80 mV over a 100 ms ramp to elicit the hERG tail current. This paradigm is delivered once every 8 s to monitor the current amplitude. The assay is conducted at room temperature. The “E559 polymorph” is then applied to cells from low to high concentrations (0.0003, 0.003, 0.01, 0.03, 0.1, 0.3, 1, 10, 30, and 100 μM) sequentially for 5 minutes. Astermizole is used at multiple concentrations as a reference compound to calculate the percent inhibition of hERG channel by the “polymorph E559”.

[3] = Pharmacokinetic study, single IP injection, plasma and brain by LC-MS/MS; type: in vivo, CD-1 mice; conditions: IP 0.75, 2.25 or 6.75 mg/kg, male and female mice
Description: A pharmacokinetic (PK) study of the “E559 polymorph” was conducted following a single intraperitoneal (IP) injection in CD-1 mice. PK analysis of the “E559 polymorph” was performed in plasma samples and in brain tissue taken at different time points post injection. Three groups of male mice and three groups of female mice (n=24 per group) were administered “E559” at different doses (0.75, 2.25, or 6.75 mg/kg) by IP injection at time zero. In each dose group, three mice/sex were sacrificed to collect plasma and brain samples at pre-dose, and 0.17, 0.5, 1, 2, 4, 8, and 24 hours post-dose. Levels of the “E559 polymorph” in plasma and brain tissue were assessed by LC-MS/MS method. Briefly, to extract the plasma samples, 200 μL of acetonitrile containing 10 ng/mL LSD-d3 was added to 50 μL of plasma. The mixture was vortexed vigorously, centrifuged (13,000 rpm) for 2 min at 4° C., and then 50 μL of supernatant was combined with 200 μL methanol/water (1:1, v/v) for LC-MS/MS analysis. Brain tissues were weighed and homogenized for ˜1 min in cold acetonitrile at a ratio of 1:1.5 (w/v) brain tissue to extraction solvent. The brain samples were then centrifuged at 13,000 rpm for 2 min at 4° C. and the supernatant was collected for LC-MS/MS analysis. In LC-MS/MS method, isocratic elution was performed on an ACE Excel 5 SuperC18™ column at 25° C., with a run time of 6.5 min. The mobile phase consisted of methanol-water (8:2, v/v) plus 0.1% NH4OH at a flow rate of 0.8 mL/min. The injection volume was 10 μL/sample. […]
The “E559 polymorph” was quantified by selected reaction monitoring of the following mass transitions (2-Br-LSD m/z 403.3→302, LSD-d3 internal standard m/z 327.2→226.1). The quantification of the “E559 polymorph” concentration in samples was achieved by using appropriate calibration standards. […] The pharmacokinetic parameters were determined by the non-compartmental analysis using the validated Phoenix®WinNonlin® version 8.2 software (Certara Inc).

D1 dopamine receptor = D1 dopamine receptor (Homo sapiens, UniProt P21728); assay: Radioligand binding, cell membrane homogenates; design: expressed in transfected cells; host or cells: HEK-293
Sequence of D1 dopamine receptor (P21728 whole entry): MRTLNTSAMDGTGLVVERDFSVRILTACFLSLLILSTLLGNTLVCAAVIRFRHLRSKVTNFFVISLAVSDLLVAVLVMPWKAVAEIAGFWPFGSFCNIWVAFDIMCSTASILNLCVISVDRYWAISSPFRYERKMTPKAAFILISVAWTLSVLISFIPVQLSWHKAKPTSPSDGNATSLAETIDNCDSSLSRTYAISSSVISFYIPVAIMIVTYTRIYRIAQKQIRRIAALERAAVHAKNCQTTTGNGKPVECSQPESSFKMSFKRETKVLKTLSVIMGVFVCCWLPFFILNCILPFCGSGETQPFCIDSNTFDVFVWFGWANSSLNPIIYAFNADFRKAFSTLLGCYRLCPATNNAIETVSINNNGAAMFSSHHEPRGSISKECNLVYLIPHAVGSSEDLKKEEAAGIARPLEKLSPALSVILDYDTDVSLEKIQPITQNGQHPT
Description: Neuro-receptor binding and functional effects of the “E559 polymorph” was examined by analyzing binding affinity [Ki (nM)], functional agonist activity [EC50 (nM)], and functional antagonist activity [IC50 (nM)] against a panel of key receptors in neurophysiological disorders. Binding and functional assays were performed at “E559 polymorph” concentrations of 0.0003, 0.003, 0.01, 0.03, 0.1, 0.3, 1, and 10 μM. In binding assays, cell membrane homogenates, expressing each receptor target, were incubated with the corresponding radio-ligand in absence or presence of several concentration of the “E559 polymorph” compound. The measurement of binding affinity of the “E559 polymorph” is represented in TABLE XIII by Ki (nM) which was calculated as percent inhibition of the binding of a radioactively labeled reference ligand at each receptor. […] Following incubation, the cells were lysed and the appropriate fluorescent probe (Ca2+ flux, cAMP, or IP1) were added for 60 minutes to measure the fluorescence transfer at the appropriate wavelength using a microplate reader. The cellular agonist effect (EC50) was calculated as a percent of control response to a known reference agonist and the cellular antagonist effect (IC50) was calculated as a percent inhibition of control reference agonist response for each receptor.

Sequence of ADRa2B (α2B adrenergic receptor) (P18089 whole entry): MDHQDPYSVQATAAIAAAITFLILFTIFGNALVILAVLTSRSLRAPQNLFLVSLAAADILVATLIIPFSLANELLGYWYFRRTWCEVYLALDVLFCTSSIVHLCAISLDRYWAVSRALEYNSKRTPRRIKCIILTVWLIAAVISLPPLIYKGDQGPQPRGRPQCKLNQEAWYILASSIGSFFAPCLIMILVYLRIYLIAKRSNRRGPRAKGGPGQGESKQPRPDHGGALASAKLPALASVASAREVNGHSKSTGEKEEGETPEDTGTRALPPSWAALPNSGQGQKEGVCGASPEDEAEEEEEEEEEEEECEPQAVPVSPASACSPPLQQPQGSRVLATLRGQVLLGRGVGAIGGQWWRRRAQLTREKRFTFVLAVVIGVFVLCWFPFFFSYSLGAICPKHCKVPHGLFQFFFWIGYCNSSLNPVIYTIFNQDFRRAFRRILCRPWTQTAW
Sequence of ADRa1B (α1B adrenergic receptor) (P35368 whole entry): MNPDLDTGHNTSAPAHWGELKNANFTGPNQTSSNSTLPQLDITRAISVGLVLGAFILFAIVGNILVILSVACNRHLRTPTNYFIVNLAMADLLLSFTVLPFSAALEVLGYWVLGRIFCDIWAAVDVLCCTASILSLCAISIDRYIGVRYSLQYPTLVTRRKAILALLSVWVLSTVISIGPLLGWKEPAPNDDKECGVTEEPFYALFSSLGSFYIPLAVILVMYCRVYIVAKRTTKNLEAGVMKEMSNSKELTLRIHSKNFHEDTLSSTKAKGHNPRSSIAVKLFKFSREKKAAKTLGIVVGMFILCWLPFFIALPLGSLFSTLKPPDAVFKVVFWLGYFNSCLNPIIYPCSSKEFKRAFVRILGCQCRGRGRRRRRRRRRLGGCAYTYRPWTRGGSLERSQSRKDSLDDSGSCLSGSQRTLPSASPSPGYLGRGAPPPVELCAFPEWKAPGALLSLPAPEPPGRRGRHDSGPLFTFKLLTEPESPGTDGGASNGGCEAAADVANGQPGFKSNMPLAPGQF

SMILES: CCN(CC)C(=O)[C@@H]1C=C2c3cccc4[nH]c(Br)c(c34)C[C@H]2N(C)C1 [E559, (5R, 8R)-2-Bromo-9,10-didehydro-N,N-diethyl-6-methylergoline-8-carboxamide hemi-D-tartrate]
- Kb [1]: 55.9 nM
- Kb [2]: 79.2 nM
- EC50 (5-HT1E): > 10000 nM
- Emax (5-HT1E; Arrestin, ligand 5-HT, read-out: Functional Assay (agonist) Emax): 8.7%
- EC50 (hERG channel): 31600 nM
- crossing of the blood-brain barrier (brain PK) [3]: can readily cross the blood-brain barrier
- plasma levels [3]: increases in time-dependent and dose-dependent manners
- time to appearance in plasma post dose [3]: 10 min
- Ki (D1 dopamine receptor): 25 nM
